Source: patent publication US9376675B2, “Method for preserving components of pancreatic juice in a sample, and kit for preserving components of pancreatic juice in a sample” (priority 2012, dated 2016)

Tests used:
[1] = tested on: S100P in human pancreatic juice specimens 1 and 2; experiment: Room temperature storage stability of added S100P standard preparation in human pancreatic juice specimens 1 and 2, S100P ELISA (Example 4); conditions: 25 ng/mL S100P standard added (exogenous), 25° C. for 16 hours, AEBSF 4 mM, PMSF 1 mM, TLCK 1 mM
Method: An effect of a protease inhibitor for storage stability of S100P in a pseudo artificial pancreatic juice and that for storage stability of S100P in a human clinical specimen were compared. As a S100P-containing pseudo artificial pancreatic juice, a solution obtained by adding S100P (standard preparation) to a pancreatin solution to give a concentration of 25 ng/mL was used.
More specifically, sample solutions were prepared as follows: (1) Sample Solution 1: containing no inhibitor, obtained by mixing 25 ng/mL of an S100P (standard preparation) solution with the two human clinical specimens (human pancreatic juice specimens 1 and 2) used in Example 3 and the pseudo artificial pancreatic juice. […]
The concentration of S100P is plotted along the ordinate, while Sample Solutions 1 to 4 using the human pancreatic juice specimens 1 and 2 and the S100P-containing pseudo artificial pancreatic juice (“Without inhibitor”, “AEBSF”, “AEBSF+PMSF”, and “AEBSF+PMSF+TLCK” in the graph) are plotted along the abscissa. […] As a result, in the sample solutions after freeze storage, S100P was detected from both the human pancreatic juice specimen and the pancreatin solution. On the other hand, with regard to the sample solutions after room temperature storage, no S100P was detected from the pancreatin solutions irrespective of the presence or absence or the kind of the protease inhibitor.

[2] = tested on: Pancreatin (activated pancreatic enzyme); experiment: Protease activity of pancreatin solution (pseudo artificial pancreatic juice), EnzCheck Protease Assay Kit with fluorescently-labeled casein; assay type: biochemical, pig; conditions: final concentration within range recommended by manufacturers; 37° C. for 2 hours; Ex/Em=485/535 nm
Method: A protease inhibitor screen was performed to find an inhibitor targeting a serine protease and having a high inhibitory effect against pancreatic juice. The protease inhibitors used were aprotinin (product of Roche), leupeptin (product of Roche), PMSF (product of Roche), AEBSF (product of Roche), p-APMSF (product of SIGMA), camostat mesilate (Foipan: product of Wako Pure Chemical Industries), gabexate mesilate (FOY: product of Wako Pure Chemical Industries), TLCK (product of SIGMA), and TPCK (product of SIGMA). It is to be noted that TPCK is an amino acid chloromethyl ketone having inhibitory activity against chymotrypsin but having no inhibitory activity against trypsin.
“Pancreatin”, a digestive enzyme prepared from the pig pancreas in which a pancreatic enzyme was present in activated form was used as pseudo artificial pancreatic juice. After addition of protease inhibitors in an amount so that the final concentration thereof would fall within a concentration range recommended by the manufacturers of the inhibitors, the protease activity was measured. The protease activity was measured using EnzCheck Protease Assay Kits (product of Molecular Probes). Described specifically, fluorescently-labeled casein attached to a kit was added to a pancreatin solution containing each protease inhibitor. After incubation at 37° C. for 2 hours, the amount of fluorescence was measured at a fluorescence wavelength of Ex/Em=485/535 nm. As a control, the protease activity of a sample solution (containing no inhibitor) obtained by directly adding fluorescently-labeled casein to pancreatin was measured.
The amount of fluorescence plotted along the ordinate represents the amount of degraded casein and it was approximated as the value of protease activity. The protease inhibitors contained respectively in the pancreatin solutions and final concentrations thereof are plotted along the abscissa. […] These inhibitors are each a sulfonyl fluoride-containing sulfone-based compound.

[3] = tested on: S100P in human clinical pancreatic juice specimens; experiment: Room temperature storage stability of added S100P standard preparation in human clinical pancreatic juice specimens, S100P ELISA (Example 2); conditions: 25 ng/mL S100P standard added; four human clinical pancreatic juice specimens; 25° C. for 16 hours; AEBSF 4 mM, PMSF 1 mM
Source text: While attention was paid to the sulfone-based compounds found to have a high inhibitory effect against digestive enzymes in pancreatic juice in Example 1, the effect of the various sulfone-based compounds on the room temperature stability of S100P (calcium-binding protein) known as a marker protein of pancreatic cancer was studied. This means that by using four human clinical pancreatic juice specimens, whether the concentration of S100P changed or not after addition of a S100P protein standard preparation was studied before and after room temperature storage.
Described specifically, sample solutions were prepared as follows: (1) Sample Solution 1: containing no inhibitor, obtained by mixing 25 ng/mL of an S100P (standard preparation) solution with the human clinical specimens, respectively. (2) Sample Solution 2: AEBSF, obtained by adding AEBSF (final concentration: 4 mM) to Sample Solution 1. […] Then, S100P was detected using CircuLex S100P ELISA Kit (product of Cyclex, Catalogue Number: CY-8060) from solutions obtained by carrying out 10-fold dilution of the sample solutions with a buffer attached to CircuLex S100P ELISA Kit, respectively. As a control, S100P was detected similarly from Sample Solution 1 immediately after preservation (that is, before room temperature storage). […]

[4] = tested on: S100P in human pancreatic juice specimens; experiment: Room temperature storage stability of S100P in human clinical pancreatic juice specimens versus freeze storage, S100P ELISA (Example 3); conditions: seven human clinical specimens; 25° C. for 16 hours; AEBSF 4 mM, PMSF 1 mM
Method: With a view to improving the storage performance of pancreatic proteins further, it was studied whether the storage stability of S100P was influenced by the combined use of the sulfonyl fluoride-containing sulfone-based compound and TLCK, that is, another […] compound. Seven human clinical specimens were used.
Described specifically, sample solutions were prepared as follows: (1) Sample Solution 1: AEBSF, obtained by adding AEBSF (final concentration: 4 mM) to the human clinical specimens. (2) Sample Solution 2: AEBSF+PMSF, obtained by adding AEBSF (final concentration: 4 mM) and PMSF (final concentration: 1 mM) to the human clinical specimens. (3) Sample Solution 3: AEBSF+PMSF+Aprotinin, obtained by adding AEBSF (final concentration: 4 mM), PMSF (final concentration: 1 mM) and Aprotinin (final concentration: 3 μM) to the human clinical specimens. […]
The concentration of S100P is plotted along the ordinate, while Sample Solutions 1 to 5 (“AEBSF”, “AEBSF+PMSF”, “AEBSF+PMSF+Aprotinin”, “AEBSF+PMSF+TPCK”, and “AEBSF+PMSF+TLCK” in the graph) of the human pancreatic juice specimens 1 to 7 are plotted along the abscissa. […] As a result, in the sample solutions after frozen storage, S100P was detected, though varying in amount, from all the human pancreatic juice specimens irrespective of the kind of the protease inhibitor added. […]

| SMILES | detection amount of S100P after room temperature storage [1] | inhibitory effect on protease activity (amount of fluorescence = degraded casein) of pancreatin solution [2] | S100P concentration after room temperature storage [3] | S100P detection amount after room temperature storage compared with freeze storage [4] |
| --- | --- | --- | --- | --- |
| NCCc1ccc(S(=O)(=O)F)cc1 [AEBSF, 4-(2-aminoethyl)-benzenesulfonyl fluoride] | detection amount of S100P is greater | markedly high inhibitory effect | S100P was detected from any of the pancreatic juice specimens | the detection amount was very small compared with that after freeze storage |
| O=S(=O)(F)Cc1ccccc1 [PMSF, phenylmethylsulfonyl fluoride] |  | markedly high inhibitory effect |  |  |
| Cc1ccc(S(=O)(=O)N[C@@H](CCCCN)C(=O)CCl)cc1 [TLCK, N-a-tosyl-L-lysine chloromethyl ketone] |  | not effective inhibitors by themselves |  |  |
| Cl.N=C(N)c1ccc(CS(=O)(=O)F)cc1 [p-APMSF, p-amidinophenylmethanesulfonyl fluoride hydrochloride] |  | markedly high inhibitory effect |  |  |
